# Reference: patent US8435980B2 (AbbVie Inc., priority 2009, dated 2013)
# Biological target: T1, Cdc7 (BEV coexpressed huCDC7/DBF4) (Homo sapiens, UniProt O00311)
# T1 construct: made in house; host or cells: BEV (baculovirus expression vector) co-expression; insect cells are implied but no cell line is named
# Test: Cdc7 enzyme inhibition assay ([33P]ATP, biotinylated peptide substrate, FlashPlate)
# Format: biochemical
# Conditions: not given
# Description: Cdc7 (BEV coexpressed huCDC7/DBF4) is prepared internally. Cdc7 assays are conducted as follows with final concentrations as listed. […] Reactions are quenched after 1 hr by the addition of 90 μL stop buffer (50 mM EDTA, 2M NaCl). […] (Ki) for exemplary compounds.
# T1 sequence (O00311 whole entry): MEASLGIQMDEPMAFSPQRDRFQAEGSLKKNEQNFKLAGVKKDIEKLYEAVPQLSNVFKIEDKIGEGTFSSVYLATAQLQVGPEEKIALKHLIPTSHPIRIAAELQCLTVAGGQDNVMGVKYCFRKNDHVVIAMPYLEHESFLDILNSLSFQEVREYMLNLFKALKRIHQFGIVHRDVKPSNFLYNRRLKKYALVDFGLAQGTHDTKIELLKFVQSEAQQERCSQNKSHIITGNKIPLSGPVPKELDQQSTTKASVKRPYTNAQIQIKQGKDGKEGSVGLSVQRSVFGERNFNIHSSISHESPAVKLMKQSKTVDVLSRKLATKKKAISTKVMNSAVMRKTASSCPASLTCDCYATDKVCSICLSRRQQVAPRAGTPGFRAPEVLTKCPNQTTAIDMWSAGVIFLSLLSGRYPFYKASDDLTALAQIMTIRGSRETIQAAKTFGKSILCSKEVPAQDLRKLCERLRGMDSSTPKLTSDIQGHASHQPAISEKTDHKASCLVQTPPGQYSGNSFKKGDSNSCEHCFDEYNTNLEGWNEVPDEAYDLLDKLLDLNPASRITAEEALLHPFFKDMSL
# T1 sequence (Q9UBU7 whole entry partner): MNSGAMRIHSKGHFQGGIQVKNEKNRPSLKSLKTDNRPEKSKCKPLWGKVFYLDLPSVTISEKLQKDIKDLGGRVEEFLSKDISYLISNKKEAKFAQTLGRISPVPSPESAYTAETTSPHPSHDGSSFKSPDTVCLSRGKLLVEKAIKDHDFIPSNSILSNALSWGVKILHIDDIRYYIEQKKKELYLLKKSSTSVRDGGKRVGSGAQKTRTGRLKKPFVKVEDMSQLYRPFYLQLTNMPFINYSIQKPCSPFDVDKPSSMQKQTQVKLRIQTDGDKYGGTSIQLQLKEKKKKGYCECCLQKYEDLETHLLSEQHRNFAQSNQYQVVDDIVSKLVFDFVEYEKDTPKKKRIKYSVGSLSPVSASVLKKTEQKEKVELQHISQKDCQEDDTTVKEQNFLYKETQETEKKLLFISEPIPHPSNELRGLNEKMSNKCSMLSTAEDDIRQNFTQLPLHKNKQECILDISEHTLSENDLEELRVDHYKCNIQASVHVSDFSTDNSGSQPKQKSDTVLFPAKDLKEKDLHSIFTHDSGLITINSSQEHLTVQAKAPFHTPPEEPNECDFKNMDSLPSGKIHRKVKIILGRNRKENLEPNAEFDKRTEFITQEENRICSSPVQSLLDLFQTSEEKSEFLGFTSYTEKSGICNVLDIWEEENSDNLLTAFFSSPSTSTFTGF
row,Compound,Ki [nM]
1,"Clc1cc(-c2c[nH]c3ncccc23)cc(NCc2cccnc2)n1 [Example 27, 6-chloro-N-(pyridin-3-ylmethyl)-4-(1H-pyrrolo[2,3-b]pyridin-3-yl)pyridin-2-amine]",< 10

# Same assay, conditions: Table 2; Comparative Example lacking the chloro substituent versus the chloro Example
row,Compound,Ki ratio comparisons (Ki Comparative Example/Ki Example)
1,"c1cnc2[nH]cc(-c3ccnc(NC4CCCCC4)n3)c2c1 [Comparative Example 12, N-cyclohexyl-4-(1H-pyrrolo[2,3-b]pyridin-3-yl)pyrimidin-2-amine, reference compound]",3

# Same assay, conditions: Table 3; enzyme inhibition data (Ki)
row,Compound,Ki [nM]
1,"Clc1cc(-c2c[nH]c3ncc(-c4ccsc4)cc23)cc(NC2CCCCC2)n1 [Example 215, 6-chloro-N-cyclohexyl-4-[5-(thiophen-3-yl)-1H-pyrrolo[2,3-b]pyridin-3-yl]pyridin-2-amine]",10 to 100
2,"CC(C)(C)OC(=O)N1CCC(C2CCC(Nc3cc(-c4c[nH]c5ncccc45)cc(Cl)n3)CC2)CC1 (stereo not drawn) [Example 362, tert-butyl 4-(4-{[6-chloro-4-(1H-pyrrolo[2,3-b]pyridin-3-yl)pyridin-2-yl]amino}cyclohexyl)piperidine-1-carboxylate]",10 to 100
3,"CN1CCCC(C(=O)NC2CCCC(Nc3cc(-c4c[nH]c5ncccc45)cc(Cl)n3)C2)C1 (stereo not drawn) [Example 348, N-(3-{[6-chloro-4-(1H-pyrrolo[2,3-b]pyridin-3-yl)pyridin-2-yl]amino}cyclohexyl)-1-methylpiperidine-3-carboxamide]",10 to 100
4,"Clc1cc(-c2c[nH]c3ncc(Nc4ccccc4)cc23)cc(NC2CCCCC2)n1 [Example 239, 3-[2-chloro-6-(cyclohexylamino)pyridin-4-yl]-N-phenyl-1H-pyrrolo[2,3-b]pyridin-5-amine]",10 to 100
5,"N-{2-[(3-{[6-chloro-4-(1H-pyrrolo[2,3-b]pyridin-3-yl)pyridin-2-yl]amino}cyclohexyl)sulfamoyl]ethyl}benzamide [Example 169]",< 10
6,"Cc1noc(C)c1S(=O)(=O)NCC(C)(C)CNc1cc(-c2c[nH]c3ncccc23)cc(Cl)n1 [Example 305, N-(3-{[6-chloro-4-(1H-pyrrolo[2,3-b]pyridin-3-yl)pyridin-2-yl]amino}-2,2-dimethylpropyl)-3,5-dimethyl-1,2-oxazole-4-sulfonamide]",10 to 100
7,"COC(=O)c1cnc2[nH]cc(-c3cc(Cl)nc(NC4CCCCC4)c3)c2c1 [Example 421, methyl 3-[2-chloro-6-(cyclohexylamino)pyridin-4-yl]-1H-pyrrolo[2,3-b]pyridine-5-carboxylate]",< 10
8,"O=C(NC1CCC(CC2CCC(Nc3cc(-c4c[nH]c5ncccc45)cc(Cl)n3)CC2)CC1)C1CC1 (stereo not drawn) [Example 368, N-{4-[(4-{[6-chloro-4-(1H-pyrrolo[2,3-b]pyridin-3-yl)pyridin-2-yl]amino}cyclohexyl)methyl]cyclohexyl} cyclopropanecarboxamide]",< 10
9,"Clc1cc(-c2c[nH]c3ncccc23)cc(NCCc2ccccc2)n1 [Example 388, 6-chloro-N-(2-phenylethyl)-4-(1H-pyrrolo[2,3-b]pyridin-3-yl)pyridin-2-amine]",< 10
10,"COc1cnc2[nH]cc(-c3cc(Cl)nc(NC4CCCC(NC(=O)CN(C)C)C4)c3)c2c1 (stereo not drawn) [Example 448, N-(3-{[6-chloro-4-(5-methoxy-1H-pyrrolo[2,3-b]pyridin-3-yl)pyridin-2-yl]amino}cyclohexyl)-N~2~,N~2~-dimethylglycinamide]",< 10
11,"CN1CCCCC1C(=O)N[C@H]1CC[C@H](Nc2cc(-c3c[nH]c4ncccc34)cc(Cl)n2)CC1 (relative stereo) [Example 337, N-(trans-4-{[6-chloro-4-(1H-pyrrolo[2,3-b]pyridin-3-yl)pyridin-2-yl]amino}cyclohexyl)-1-methylpiperidine-2-carboxamide]",< 10
12,"CC(=O)N[C@H]1CC[C@H](Oc2nc(Cl)cc(-c3c[nH]c4ncccc34)n2)CC1 [Example 480, N-(trans-4-{[4-chloro-6-(1H-pyrrolo[2,3-b]pyridin-3-yl)pyrimidin-2-yl]oxy}cyclohexyl)acetamide]",10 to 100
13,"Clc1cc(-c2c[nH]c3ncc(-c4cn[nH]c4)cc23)cc(NC2CCCCC2)n1 [Example 171, 6-chloro-N-cyclohexyl-4-[5-(1H-pyrazol-4-yl)-1H-pyrrolo[2,3-b]pyridin-3-yl]pyridin-2-amine]",< 10
14,"N-(3-{[6-chloro-4-(1H-pyrrolo[2,3-b]pyridin-3-yl)pyridin-2-yl]amino}cyclohexyl)-2-(dimethylamino)ethanesulfonamide [Example 154]",< 10

# More lines, now with the values ahead:
row,Ki [nM],Compound
1,< 10,"COc1cc(N2CCC(N3CCN(C)CC3)CC2)ccc1Nc1cc(-c2c[nH]c3ncccc23)cc(Cl)n1 [Example 206, 6-chloro-N-{2-methoxy-4-[4-(4-methylpiperazin-1-yl)piperidin-1-yl]phenyl}-4-(1H-pyrrolo[2,3-b]pyridin-3-yl)pyridin-2-amine]"
2,< 10,"C[C@@H](Nc1nc(Cl)cc(-c2c[nH]c3ncccc23)n1)c1ccccc1 [Example 456, 4-chloro-N-[(1R)-1-phenylethyl]-6-(1H-pyrrolo[2,3-b]pyridin-3-yl)pyrimidin-2-amine]"
3,< 10,"Clc1cc(-c2c[nH]c3ncccc23)cc(NC2CCC(C3CCN(C4CCC4)CC3)CC2)n1 (stereo not drawn) [Example 182, 6-chloro-N-[4-(1-cyclobutylpiperidin-4-yl)cyclohexyl]-4-(1H-pyrrolo[2,3-b]pyridin-3-yl)pyridin-2-amine]"
4,< 10,"CS(=O)(=O)N1CCCC(C2CCC(Nc3cc(-c4c[nH]c5ncccc45)cc(Cl)n3)CC2)C1 (stereo not drawn) [Example 186, 6-chloro-N-{4-[1-(methylsulfonyl)piperidin-3-yl]cyclohexyl}-4-(1H-pyrrolo[2,3-b]pyridin-3-yl)pyridin-2-amine]"
5,< 10,"Clc1cc(-c2c[nH]c3ncccc23)cc(N[C@H]2CC[C@H](NC3CCN(C4CCCCC4)CC3)CC2)n1 [Example 157, trans-N-[6-chloro-4-(1H-pyrrolo[2,3-b]pyridin-3-yl)pyridin-2-yl]-N′-(1-cyclohexylpiperidin-4-yl)cyclohexane-1,4-diamine]"
6,< 10,"O=C(N[C@H]1CC[C@H](Nc2cc(-c3c[nH]c4ncccc34)cc(Cl)n2)CC1)c1cccc(Cl)c1 [Example 385, 3-chloro-N-(trans-4-{[6-chloro-4-(1H-pyrrolo[2,3-b]pyridin-3-yl)pyridin-2-yl]amino}cyclohexyl)benzamide]"
7,< 10,"COc1cnc2[nH]cc(-c3cc(Cl)nc(N[C@H]4CC[C@H](O)CC4)c3)c2c1 [Example 149, trans-4-{[6-chloro-4-(5-methoxy-1H-pyrrolo[2,3-b]pyridin-3-yl)pyridin-2-yl]amino}cyclohexanol]"
8,< 10,"O=C1CC[C@H](C(=O)N[C@H]2CC[C@H](Nc3cc(-c4c[nH]c5ncccc45)cc(Cl)n3)CC2)N1 [Example 335, N-(trans-4-{[6-chloro-4-(1H-pyrrolo[2,3-b]pyridin-3-yl)pyridin-2-yl]amino}cyclohexyl)-5-oxo-D-prolinamide]"
9,< 10,"CS(=O)(=O)N1CCCC(Nc2cc(-c3c[nH]c4ncccc34)cc(Cl)n2)C1 (stereo not drawn) [Example 138, 6-chloro-N-[1-(methylsulfonyl)piperidin-3-yl]-4-(1H-pyrrolo[2,3-b]pyridin-3-yl)pyridin-2-amine]"
10,< 10,"COc1cc(Cl)ccc1C(=O)N[C@H]1CC[C@H](Nc2cc(-c3c[nH]c4ncccc34)cc(Cl)n2)CC1 [Example 382, 4-chloro-N-(trans-4-{[6-chloro-4-(1H-pyrrolo[2,3-b]pyridin-3-yl)pyridin-2-yl]amino}cyclohexyl)-2-methoxybenzamide]"
11,< 10,"Clc1cc(-c2c[nH]c3ncccc23)cc(NCCOc2ccccc2)n1 [Example 390, 6-chloro-N-(2-phenoxyethyl)-4-(1H-pyrrolo[2,3-b]pyridin-3-yl)pyridin-2-amine]"
12,< 10,"NCCOCCOCCNc1nc(Cl)cc(-c2c[nH]c3ncccc23)n1 [Example 468, N-{2-[2-(2-aminoethoxy)ethoxy]ethyl}-4-chloro-6-(1H-pyrrolo[2,3-b]pyridin-3-yl)pyrimidin-2-amine]"
13,< 10,"Clc1cc(-c2c[nH]c3ncccc23)cc(Nc2ccccc2)n1 [Example 205, 6-chloro-N-phenyl-4-(1H-pyrrolo[2,3-b]pyridin-3-yl)pyridin-2-amine]"
14,< 10,"Cc1cnc2[nH]cc(-c3cc(Cl)nc(NC4CCCCC4)c3)c2c1 [Example 204, 6-chloro-N-cyclohexyl-4-(5-methyl-1H-pyrrolo[2,3-b]pyridin-3-yl)pyridin-2-amine]"
15,< 10,"Clc1cc(-c2c[nH]c3ncc(Br)cc23)cc(NC2CCCCC2)n1 [Example 173, 4-(5-bromo-1H-pyrrolo[2,3-b]pyridin-3-yl)-6-chloro-N-cyclohexylpyridin-2-amine]"
16,< 10,"Cn1cncc1COc1cnc2[nH]cc(-c3cc(Cl)nc(NC4CCCCC4)c3)c2c1 [Example 196, 6-chloro-N-cyclohexyl-4-{5-[(1-methyl-1H-imidazol-5-yl)methoxy]-1H-pyrrolo[2,3-b]pyridin-3-yl}pyridin-2-amine]"
17,< 10,"Clc1cc(-c2c[nH]c3ncccc23)cc(Nc2ccc(Oc3ccccc3)cc2)n1 [Example 419, 6-chloro-N-(4-phenoxyphenyl)-4-(1H-pyrrolo[2,3-b]pyridin-3-yl)pyridin-2-amine]"
18,< 10,"CC(C)(C)c1ccc(Nc2cc(-c3c[nH]c4ncccc34)cc(Cl)n2)cc1 [Example 440, N-(4-tert-butylphenyl)-6-chloro-4-(1H-pyrrolo[2,3-b]pyridin-3-yl)pyridin-2-amine]"
19,< 10,"O=C(CN1CCOCC1)Nc1cc(-c2c[nH]c3ncccc23)cc(Cl)n1 [Example 150, N-[6-chloro-4-(1H-pyrrolo[2,3-b]pyridin-3-yl)pyridin-2-yl]-2-(morpholin-4-yl)acetamide]"
20,< 10,"COc1cnc2[nH]cc(-c3cc(Cl)nc(N[C@H]4CC[C@H](NC(=O)CN)CC4)c3)c2c1 [Example 246, N-(trans-4-{[6-chloro-4-(5-methoxy-1H-pyrrolo[2,3-b]pyridin-3-yl)pyridin-2-yl]amino}cyclohexyl)glycinamide]"
